Assay [1] addresses T1, catalytic domain (JH1) of human JAK2 (Homo sapiens, UniProt O60674). The assay is described as follows: JAK2 LanthaScreen JH1 Binding Assay. Further details: JH1, amino acids 826-1132; FLAG (N); purchased Carna Biosciences 08-445-20N; host or cells: baculovirus expression system. Particulars: read-out: JH1 BIND. The procedure: Example A. JAK2 LanthaScreen JH1 Binding Assay
JAK2 JH1 binding assay utilizes catalytic domain (JH1, amino acids 826-1132) of human JAK2 expressed as N-terminal FLAG-tagged, biotinylated protein in a baculovirus expression system (Carna Biosciences, Product #08-445-20N). The assay was conducted in black 384-well polystyrene plates in a final reaction volume of 20 μL. JAK2 JH1 (1.5 nM) was incubated with compounds (100 nL serially diluted in DMSO) in the presence of 50 nM fluorescent JAK2-JH1 tracer and 0.5 nM Streptavidin-Tb cryptate (Cisbio Part #610SATLB) in assay buffer (50 mM Tris, pH=7.5, 10 mM MgCl2, 0.01% Brij-35, 0.1% BSA, 1 mM EGTA, 5% Glycerol and 5 mM DTT). Non-specific binding was accessed in the presence of 2 mM ATP. After incubation for 2 hours at 25° C., LanthaScreen signals were read on a PHERAstar FS plate reader (BMG LABTECH). Data was analyzed with IDBS XLfit and GraphPad Prism 5.0 software using a four parameter dose response curve to determine IC50 for each compound.
In general terms: In TR-FRET formats the signal depends on donor and acceptor labels being close together.
Target sequence in this assay (O60674 826-1132): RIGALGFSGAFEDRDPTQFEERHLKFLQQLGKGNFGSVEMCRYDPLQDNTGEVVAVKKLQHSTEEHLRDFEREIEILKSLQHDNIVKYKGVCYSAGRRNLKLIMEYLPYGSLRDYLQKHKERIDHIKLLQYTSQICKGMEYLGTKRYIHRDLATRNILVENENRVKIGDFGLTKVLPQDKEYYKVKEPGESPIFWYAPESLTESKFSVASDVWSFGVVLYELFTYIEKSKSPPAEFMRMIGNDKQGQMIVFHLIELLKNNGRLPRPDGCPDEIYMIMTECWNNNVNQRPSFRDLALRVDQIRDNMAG

The target in assay [2] is T2, pseudo-kinase domain (JH2) of human V617F mutant JAK2 (Homo sapiens, UniProt O60674, F794H/V617F/W659A/W777A).
T2 construct: JH2, amino-acids 536-812 with 3 surface mutations; His (C); purchased BPS Bioscience 79498; host or cells: baculovirus expression system
T2 sequence (O60674 536-812 V617F/W659A/W777A/F794H): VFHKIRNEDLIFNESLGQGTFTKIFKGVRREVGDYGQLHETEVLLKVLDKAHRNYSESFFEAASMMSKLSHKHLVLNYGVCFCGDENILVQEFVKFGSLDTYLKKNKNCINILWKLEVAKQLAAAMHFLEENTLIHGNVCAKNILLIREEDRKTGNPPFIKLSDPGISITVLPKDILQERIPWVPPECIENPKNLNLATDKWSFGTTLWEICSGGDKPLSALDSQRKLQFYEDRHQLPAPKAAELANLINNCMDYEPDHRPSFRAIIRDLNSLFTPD
Kind of assay: JAK2 LanthaScreen JH2-V617F Binding Assay. Particulars: read-out: JH2 BIND V617F. The procedure: Example C. JAK2 LanthaScreen JH2-V617F Binding Assay
(§1) JAK2 JH2-V617F binding assay utilizes pseudo-kinase domain (JH2, amino-acids 536-812 with 3 surface mutations W659A, W777A, F794H) of human V617F mutant JAK2 expressed as C-terminal His-Avi-tagged, biotinylated protein in a baculovirus expression system (BPS Bioscience, Catalog #79498). The assay was conducted in black 384-well polystyrene plates in a final reaction volume of 20 μL. JAK2 JH2-V617F (0.26 nM) was incubated with compounds (100 nL serially diluted in DMSO) in the presence of 50 nM Fluorescent JAK2-JH2 Tracer (MedChem Express Catalog #HY-102055) and 0.25 nM Streptavidin-Tb cryptate (Cisbio Part #610SATLB) in assay buffer (50 mM Tris, pH=7.5, 10 mM MgCl2, 0.01% Brij-35, 0.1% BSA, 1 mM EGTA, 5% Glycerol and 5 mM DTT). Non-specific binding was accessed in the presence of 2 mM ATP. After incubation for 1 hour at 25° C., LanthaScreen signals were read on a PHERAstar FS plate reader (BMG LABTECH). Data was analyzed with IDBS XLfit and GraphPad Prism 5.0 software using a four parameter dose response curve to determine IC50 for each compound.

The target in assay [3] is T1, catalytic domain (JH1) of human JAK2. Kind of assay: JAK2 HTRF Enzyme Activity Assay. It counts as biochemical. Further details: JH1, amino acids 808-1132; His (N); purchased BPS Bioscience 40450; host or cells: baculovirus expression system. Particulars: ATP 30 μM or 1 mM (not given), read-out: ENZ. The method, then: Example D. JAK2 HTRF Enzyme Activity Assay
JAK2 enzyme activity assays utilize catalytic domain (JH1, amino acids 808-1132) of human JAK2 expressed as N-terminal His-tagged protein in a baculovirus expression system (BPS Bioscience, Catalog #40450). The assays was conducted in black 384-well polystyrene plates in a final reaction volume of 20 μL. JAK2 (0.015 nM) was incubated with compounds (100 nL serially diluted in DMSO) in the presence of ATP (30 μM or 1 mM) and 500 nM Biotin-labeled EQEDEPEGDYFEWLE (SEQ ID NO.: 1) peptide (BioSource International, custom synthesis) in assay buffer (50 mM Tris, pH=7.5, 10 mM MgC2, 0.01% Brij-35, 0.1% BSA, 1 mM EGTA, 5% Glycerol and 5 mM DTT) for 60 minutes at 25° C. The reactions were stopped by the addition of 10 μL of detection buffer (50 mM Tris, pH 7.8, 0.5 mg/mL BSA, 150 mM NaCl), supplemented with EDTA, LANCE Eu-W1024 anti-phosphotyrosine (PY20), (PerkinElmer, Catalog #AD0067) and Streptavidin SureLight APC (PerkinElmer Catalog #CR130-100), for a final concentration of 15 mM, 1.5 nM and 75 nM, respectively. HTRF signals were read after 30 minutes incubation at room temperature on a PHERAstar FS plate reader (BMG LABTECH). Data was analyzed with IDBS XLfit and GraphPad Prism 5.0 software using a four parameter dose response curve to determine IC50 for each compound.
Target sequence in this assay (O60674 808-1132): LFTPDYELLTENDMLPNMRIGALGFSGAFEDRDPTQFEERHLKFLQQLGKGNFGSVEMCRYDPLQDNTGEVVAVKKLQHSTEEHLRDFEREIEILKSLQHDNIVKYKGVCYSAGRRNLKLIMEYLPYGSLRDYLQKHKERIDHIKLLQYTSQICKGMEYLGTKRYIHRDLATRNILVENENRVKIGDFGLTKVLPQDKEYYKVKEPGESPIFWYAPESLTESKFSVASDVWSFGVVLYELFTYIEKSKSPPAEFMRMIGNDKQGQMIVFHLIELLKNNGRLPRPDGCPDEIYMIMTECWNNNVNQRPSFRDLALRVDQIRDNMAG

In assay [4] the target is T3, pseudo-kinase domain (JH2) of human Wild Type JAK2 (Homo sapiens, UniProt O60674, F794H/W659A/W777A).
T3 construct: JH2, amino-acids 536-812 with 3 surface mutations; His (C); purchased BPS Bioscience 79463; host or cells: baculovirus expression system
T3 sequence (O60674 536-812 W659A/W777A/F794H): as the sequence (O60674 536-812 V617F/W659A/W777A/F794H) above, with F82V counted along it
The assay is described as follows: JAK2 LanthaScreen JH2-WT Binding Assay. Particulars: read-out: JH2 BIND WT. The procedure:
Example B. JAK2 LanthaScreen JH2-WT Binding Assay
as §1, with “JH2-WT” for “JH2-V617F”, “Wild Type” for “V617F mutant”, “#79463).” for “#79498).”, “JH2-WT (0.145” for “JH2-V617F (0.26”

Structures are written as SMILES. pIC50: −log10 of the molar value. Where only a bound is given, the exact number is not on record here.

`COc1c(Nc2nc(NC(=O)C3CC3)nn3ccc(-c4cnn(Cc5ccc(C(=O)O)cc5)c4)c23)cccc1C(F)(F)F` [Example 6, 4-((4-(2-(Cyclopropanecarboxamido)-4-((2-methoxy-3-(trifluoromethyl)phenyl)amino)pyrrolo[2,1-f][1,2,4]triazin-5-yl)-1H-pyrazol-1-yl)methyl)benzoic acid]: the pIC50 was 5.00 to 6.00 in assay [1], at least 7.00 in assay [2], 5.00 to 6.00 in assay [3] and at least 7.00 in assay [4].

As for `COc1c(Nc2nc(NC(=O)C3CC3)nn3ccc(-c4cnn(Cc5ccc(NS(=O)(=O)C6CC6)cc5)c4)c23)cccc1C(F)(F)F` [Example 2, N-(5-(1-(4-(Cyclopropanesulfonamido)benzyl)-1H-pyrazol-4-yl)-4-((2-methoxy-3-(trifluoromethyl)phenyl)amino)pyrrolo[2,1-f][1,2,4]triazin-2-yl)cyclopropanecarboxamide], the pIC50 in assay [1] was below 5.00; in assay [2] it was at least 7.00; in assay [3] it was below 5.00; in assay [4], at least 7.00.

For `COc1c(Nc2nc(NC(=O)C3CC3)nn3ccc(-c4cnn(Cc5cccnc5)c4)c23)cccc1C(F)(F)F` [Example 5, N-(4-((2-Methoxy-3-(trifluoromethyl)phenyl)amino)-5-(1-(pyridin-3-ylmethyl)-1H-pyrazol-4-yl)pyrrolo[2,1-f][1,2,4]triazin-2-yl)cyclopropanecarboxamide], the pIC50 in assay [1] is below 5.00; in assay [2], 5.00 to 6.00; in assay [3], below 5.00; in assay [4] it was 5.00 to 6.00.

As for `CCS(=O)(=O)Nc1ccc(Cn2cc(-c3ccn4nc(NC(=O)C5CC5)nc(Nc5cccc(C(F)(F)F)c5OC)c34)cn2)cc1` [Example 1, N-(5-(1-(4-(Ethylsulfonamido)benzyl)-1H-pyrazol-4-yl)-4-((2-methoxy-3-(trifluoromethyl)phenyl)amino)pyrrolo[2,1-f][1,2,4]triazin-2-yl)cyclopropanecarboxamide], the pIC50 in assay [1] is below 5.00; in assay [2], at least 7.00; in assay [3] it was below 5.00; in assay [4], at least 7.00.

On to `COc1c(Nc2nc(NC(=O)C3CC3)nn3ccc(-c4cnn(Cc5ccc(NS(C)(=O)=O)cc5)c4)c23)cccc1-c1ncn(C)n1` [Example 4, N-(4-((2-Methoxy-3-(1-methyl-1H-1,2,4-triazol-3-yl)phenyl)amino)-5-(1-(4-(methylsulfonamido)benzyl)-1H-pyrazol-4-yl)pyrrolo[2,1-f][1,2,4]triazin-2-yl)cyclopropanecarboxamide], for which the pIC50 in assay [1] was below 5.00; in assay [2], 6.30 to 7.00; in assay [3], below 5.00; in assay [4], 6.30 to 7.00.

As for `CCS(=O)(=O)Nc1ccc(Cn2cc(-c3ccn4nc(NC(=O)C5CC5)nc(Nc5cccc(-c6ncn(C)n6)c5OC)c34)cn2)cc1` [Example 3, N-(5-(1-(4-(Ethylsulfonamido)benzyl)-1H-pyrazol-4-yl)-4-((2-methoxy-3-(1-methyl-1H-1,2,4-triazol-3-yl)phenyl)amino)pyrrolo[2,1-f][1,2,4]triazin-2-yl)cyclopropanecarboxamide], the pIC50 in assay [1] was below 5.00; in assay [2] it was 6.30 to 7.00; in assay [3], below 5.00; in assay [4] it was at least 7.00.
